{
  "source": "patent US8373006B2",
  "about": "“Anti-leishmanial compound and anti-leishmanial drug” (Aoyama Gakuin Educational Foundation, priority 2010, dated 2013)",
  "key": {"[1]": {"tested_on": "L. major/egfp promastigotes", "assay": "Analysis of in vitro anti-leishmanial activity (growth inhibition, egfp fluorescence)", "format": "cell-based, Leishmania major", "conditions": "25° C., 72 h, Amphotericin B positive control defined as 100%, FIG. 9", "experimental": "The compounds represented by formulas (1) to (6), which had been isolated by the procedure described above, were subjected to an analysis of the physiological activity under the conditions that are described below. Leishmania major promastigotes were selected as the Leishmania protozoa, and a L. major/egfp promastigotes in which a fluorescent protein egfp gene had been introduced was used. The compounds mentioned above were used as samples. Thus, the growth inhibition rate was determined under the following conditions.\nL. major/egfp promastigotes were maintained at 25° C. using a 96-well plate, in 199 medium (NISSUI Pharmaceutical) containing 10% fetal bovine serum 25 mM and Hepes buffer (ICN Biomedeivals, Inc., Aurora, Ohio) and 10 μg/mL Tunicamycin (SIGMA-ALDRICH, inc., USA). Subsequently, to each well of 96-well plates containing 100 μL of L. major/egfp suspension with 1×10^6 cells/mL, 100 μL of test solution (sample dissolved in DMSO) was added, and the plates were incubated at 25° C. for 72 h. Thereafter, Fluorescence signals of L. major/egfp promastigotes were measured with a fluorescence microplate reader (Fluoroscan Ascent FL, Dainippon Pharmaceutical Co.) with excitation at 485 nm and emission at 538 nm. […]"}, "L. major PM2": {"tested_on": "L. major PM2", "assay": "Analysis of in vivo anti-leishmanial activity in leishmaniasis mouse model", "conditions": "Balb/c mice infected with L. major PM2; 200 μg by peritoneal injection once a day for three weeks; FIG. 10-12", "experimental": "In order to evaluate the in vivo anti-leishmanial activity of the compound represented by formula (3), which had been isolated by the procedure described above, a leishmaniasis mouse model was used to investigate the therapeutic effect. Six-week old mice (Balb/c, male, 6 animals per group) were infected with 1×10^7 cells of cultured promastigotes of L. major PM2. From the day after the infection day, the compound represented by the formula (3) was administered to each specimen in an amount of 200 [μg by peritoneal injection. The administration schedule was such that the compound was continuously administered once a day for three weeks. Further, as control, the same analysis was carried out also for a treatment group to which Amphotericin B was administered, and for a treatment group to which none was administered."}},
  "data": [
    {"smiles": "CC(C)=CCC/C(C)=C/CC/C(C)=C/CC/C(C)=C/CC1(CC(=O)O)CC(=O)C=CC1=O", "note": "(centres unmarked) [formula (3)]", "values": [
      {"measurement": "growth inhibition rate", "setting": "[1]", "result": "almost equal to the growth inhibition rate of Amphotericin B"},
      {"measurement": "in vivo anti-leishmanial activity (size of ulcer, antibody titer in blood, protozoan DNA in blood)", "setting": "L. major PM2", "result": "equal to that of Amphotericin B"}
    ]}
  ]
}
